{"source": "paper PMC5832847", "about": "“Rapid measurement of inhibitor binding kinetics by isothermal titration calorimetry” (Nature Communications, 2018)", "biological_target": "T1, prolyl oligopeptidase (POP) (Homo sapiens, UniProt P48147)", "T1 construct": "made in house; host or cells: E. coli BL21", "T1 sequence (P48147 1-710)": "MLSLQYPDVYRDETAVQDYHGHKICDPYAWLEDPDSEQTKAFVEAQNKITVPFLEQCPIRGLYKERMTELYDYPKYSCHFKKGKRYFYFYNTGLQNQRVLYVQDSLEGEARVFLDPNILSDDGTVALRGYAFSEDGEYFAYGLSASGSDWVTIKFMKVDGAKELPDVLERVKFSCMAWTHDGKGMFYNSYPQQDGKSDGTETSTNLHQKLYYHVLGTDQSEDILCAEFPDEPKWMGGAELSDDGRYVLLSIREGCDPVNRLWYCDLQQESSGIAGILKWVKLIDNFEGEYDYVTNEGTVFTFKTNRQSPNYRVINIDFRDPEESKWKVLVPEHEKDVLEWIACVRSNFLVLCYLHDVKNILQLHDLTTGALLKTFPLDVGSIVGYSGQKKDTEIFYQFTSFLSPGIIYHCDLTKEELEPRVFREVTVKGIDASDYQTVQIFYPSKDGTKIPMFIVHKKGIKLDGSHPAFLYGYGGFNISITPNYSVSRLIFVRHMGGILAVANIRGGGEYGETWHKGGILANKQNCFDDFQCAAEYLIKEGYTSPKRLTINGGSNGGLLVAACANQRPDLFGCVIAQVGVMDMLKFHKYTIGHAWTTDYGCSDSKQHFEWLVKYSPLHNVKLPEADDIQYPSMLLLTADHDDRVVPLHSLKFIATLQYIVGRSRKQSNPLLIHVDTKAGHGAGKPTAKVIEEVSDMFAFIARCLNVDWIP", "experiment": "ITC enthalpy of catalysis and Michaelis-Menten parameters with TRH", "assay_type": "biochemical", "details": "30 °C", "description": "Prolyl oligopeptidase enthalpy of catalysis and Michaelis-Menten parameters.\nSupplementary Figure 3. Prolyl oligopeptidase and TRH enthalpy of catalysis. 3 injections (15 µL over 30 s) of Thyrotropin-releasing Hormone (TRH) (5.5 mM in syringe) into cell containing POP (250 nM in Cell) at 30 °C in buffer described above. Experiment was carried out using a Malvern VP -ITC.\nSupplementary Figure 4. Michaelis-Menten plot for prolyl oligopeptidase with TRH. 5 injections (8 µL, 6 […]\nThyrotropin -releasing Hormone (TRH) (27.6 mM in syringe) into cell containing POP (2.5 nM in Cell) at 30 °C in buffer described above. The enzyme velocity at several concentrations of substrate (black ope n circles) was extracted using the methods described in 13 and fit to Michaelis-Menten kinetics (blue curve).\nExperiment was carried out in Malvern VP -ITC. […]\nSupplementary Table 1. Summary of prolyl oligopeptidase 13 enzyme parameters with TRH. Determined by ITC using techniques presented by Gomez et al.\nEnthalpy of binding in kinetics of inhibition and initiation experiments . In the kinetics of inhibition and initiation experiments performed here, the instrument measures both the heat generated by enzymatic catalysis and the heat produced due direct interaction of the inhibitor with the enzyme. In order to estimate the relative magnitudes of these two effects, the enthalpy of binding was directly measured […]\n1000-fold greater, 5 µM) than those used in kinetics of inhibition and initiation experiments (Supplementary Fig. 5 ). Binding data were then modelled at the concentrations of enzyme and inhibitor and injection size and spacing used for the kinetic experiment for compound 5, with representative instrumental noise estimated from the basel ines, ΔHbind taken from Supplementary Table 2 and Ki taken as a previously reported value (0.5 nM) 14 (Supplementary Fig. 6).\nSupplementary Figure 5. Compound 5 prolyl o ligopeptidase binding experiments. Compound 5 (90 µM) was titrated into 5 µM POP in cell using a Malvern ITC-200 calorimeter. […]"}
{"substance": "thyrotropin-releasing hormone [TRH]", "values": [{"measurement": "Km", "value": 975, "unit": "µM"}, {"measurement": "kcat", "value": 42.19, "unit": "s⁻¹"}, {"measurement": "ΔHcat", "value": "-6.72 ± 0.06", "unit": "kcal/mol"}]}
